SMILES	logP
CCOc1c(OC)cc(Cc2cnc(N)nc2N)cc1OC	1.34
O=C1CCC(=O)N1c1cccc(F)c1	0.38
CCCOP(N)(=O)SCCC (stereo not given)	1.23
CN(C=O)c1ccc(S(=O)(=O)N(C)C)cc1	0.4
O=S1(=O)NC(CCl)=Nc2cc(Cl)ccc21	1.68
CCCC(=O)N(C)SN(C)C(=O)Oc1cccc2c1OC(C)(C)C2	3.8
c1cncc(CCN2CCCCC2)c1	1.66
CNc1ncnc2sccc12	1.43
COc1cc(Cc2cnc(N)nc2N)cc2c1OCO2	1.38
CSc1ccc2c(c1)C(c1ccccc1)=NCC(=O)N2C	2.95
CC(=O)OCC1=C(C(=O)O)N2C(=O)C(NC(=O)CSc3cc(Cl)ccc3Cl)C2SC1 (stereo not given)	1.66
CCCCCCCCCCCCCC[n+]1ccc(C)cc1C.[I-]	2.47
O=C(CN1CCCCC1)Nc1ccc(Cl)cc1	3.34
O=NN1CCCCCCCC1	2.04
OCCCCCn1nnc2ccccc21	1.51
O=C(NCCO)c1cccnc1	-0.11
CN(C)c1ccc(Cc2cnc(N)nc2N)cc1	1.82
O=NN(CCCl)C(=O)NC1CSCSC1	2.08
COc1cc(Cc2cnc(N)nc2N)cc(OC)c1Cl	1.87
O=c1cn[nH]c2ccccc12	0.82
OCC1OC(Oc2cc(OC3OC(CO)C(O)C(O)C3O)c(I)cc2I)C(O)C(O)C1O (stereo not given)	-0.25
O=C1CN=C(c2ccc(Cl)cc2)c2cc(Br)ccc2N1	3.78
C[N+](C)(C)Cc1ccncc1.[Br-]	-3.95
COCN1C(=O)CN=C(c2ccccc2)c2cc(N)ccc21	1.32
CCSc1nnc(C(C)C)c(=O)n1N	1.52

SMILES	logP
O=S1(=O)NC(C2CC2)=Nc2cc(Cl)ccc21	1.98
CC(C)(C)NC(=O)NN	-0.81
CSC(C)=NOC(=O)N(C)SN(C)C(=O)C1CC1	1.7
COc1ccc(Cc2cnc(N)nc2N)c(OC)n1	2.01
COC(=O)N(C)SN(C)C(=O)Oc1cccc2c1OC(C)(C)C2	3
O=NN(CCCl)C(=O)NC1CCS(=O)(=O)CC1	0.19
O=C(NCC(O)CO)Nc1ccccc1 (stereo not given)	0.28
CC(=O)Nc1cnc2ccccc2c1	1.92
CN(C)c1ccc2c(c1)C(c1ccccc1)=NCC(=O)N2C	2.63
O=C(Nc1ccccc1)NC(CO)(CO)CO	0.43
COc1cc(C)n(-c2ccncn2)n1	2.21
COc1ccc(C(N)=O)cc1N=NN(C)C	0.44
NC(=O)c1cccc(OC(=O)CNC(=O)c2ccccc2)c1	1.2
CCCCCCCCCCCCCCCC[n+]1cc(C)cc(C)c1.[I-]	3.35
CCc1cc(=O)n2c(C)cccc2n1	1.59
COc1cccc(Cc2cnc(N)nc2N)c1	1.54
Cc1ccc(C(=O)c2ccncc2)cc1	2.51
CC(C)OCC(O)Cn1ccnc1[N+](=O)[O-] (stereo not given)	0.51
CCCCCC[n+]1ccc(C)c(C)c1.[I-]	-1.51
COCCOc1c(OC)cc(Cc2cnc(N)nc2N)cc1OC	0.56
CNC(=O)C(Cc1ccccc1)NC(C)=O (stereo not given)	0.4
CC(C)NC(=O)NN	-1.3
CCC1(CC2COc3ccccc3O2)C(=O)NC(=O)NC1=O (stereo not given)	1.85
CSCC1=C(C(=O)O)N2C(=O)C(NC(=O)Cc3cccs3)C2SC1 (stereo not given)	1.01
CC1CN(C(=O)c2ccccc2)CC(C)N1N=O (stereo not given)	1.04

SMILES	logP
Nc1ccc(OC2OC(CO)C(O)C(O)C2O)cc1 (stereo not given)	-2.67
CCCCCCOC(=O)N(C)SN(C)C(=O)ON=C(C)SC	4.2
N#CC(=Cc1ccccc1)C(=O)Nc1ccccc1	3.41
CNC(=O)Oc1cccc([N+](=O)[O-])c1	1.39
COC(=O)C(C#N)=NNc1cc(Cl)cc(Cl)c1	4.5
CCOC(=O)c1cnc2ccccn2c1=O	0.25
CCc1nnc(SC)n(N)c1=O	0.46
COc1cc(-n2c(=O)cc(C)n2C)nc(C)n1	0.7
CCOC(=O)C(=Cc1ccc(C)cc1)C(C)=O	2.63
O=C(O)COc1cccc(S(=O)(=O)C(F)(F)F)c1	2.19
O=C(O)COc1cccc(OC(F)(F)F)c1	2.48
CCOP(=S)(OCC)Oc1ccc(SC)c(Cl)c1	5.06
Cc1ccc(N2C(N)=NC(N)=NC2(C)C)cc1	0.85
N#Cc1ccc(OC(=O)CNC(=O)c2ccccc2)cc1	2.11
N#CCNc1ccccc1C(=O)O	1.8
O=S1(=O)NC(C2CCCC2)=Nc2ccccc21	1.83
CC(=O)c1ccc(NS(=O)(=O)C(F)(F)F)cc1	2.83
CN1C(C(=O)Nc2nccs2)C(=O)c2ccccc2S1(=O)=O (stereo not given)	1.64
COc1cc(Cc2cnc(N)nc2N)cc(OC)c1C#N	1.39
COc1cc(Cc2cnc(N)nc2N)cc(OC)c1OCC#N	0.72
CCCCCCC1OC(=O)c2ccccc21 (stereo not given)	3.55
CCC(C)n1nnc2ccccc21 (stereo not given)	2.31
NS(=O)(=O)c1ccc2c(c1)S(=O)(=O)NC(Cc1ccccc1)N2 (stereo not given)	1.03
O=NN1CCC(O)CC1	-0.89
CCCCCc1nnc(N)o1	1.1

SMILES	logP
CN(C)c1ccc2c(c1)C(c1ccccc1)=NCC(=O)N2	2.43
CNN=CCCc1ccccc1	1
COCCN(CCOC)/N=N/c1nc[nH]c1C(N)=O	0.03
COc1ccc(CC(C)N)c(OC)c1OC (stereo not given)	1.51
FC(F)(F)c1nc2cc(Br)c(Br)cc2[nH]1	4.15
CCN(CC)CC(=O)NC1c2ccccc2-c2ccccc21	3.64
Nc1cc(OCC(=O)O)ccc1Cl	1.16
Nc1nnc(S(N)(=O)=O)s1	-0.9
Cc1ccc(CN(C)N=Nc2ccc(C(=O)O)cc2)cc1	4.75
NC(=O)/C=C/c1ccc2c(c1)OCO2	1.4
O=NN(CCCl)C(=O)NC12CC3CC(CC(C3)C1)C2	3.56
Cc1c([N+](=O)[O-])cc(C(N)=O)cc1[N+](=O)[O-]	0.68
CSC(C)=NOC(=O)N(C)SN(C)C(=O)OC1CCCCC1	3.6
FC(F)OC(F)(F)C(F)Cl (stereo not given)	2.1
O=[N+]([O-])c1nccn1C1OC(CO)C(O)C1O (stereo not given)	-1.15
Nc1ccc(C(=O)Oc2ccc(Cl)cc2Cl)c(O)c1	4.27
COc1ccc(Cc2cnc(N)nc2N)cc1	1.34
CCCS(=O)(=O)c1cc(OC)c(OC)c(OC)c1	1.56
O=C1CN=C(c2ccccc2Cl)c2cc(Br)ccc2N1	3.3
COc1ccc(Br)c(Cc2cnc(N)nc2N)c1	2
COCN1C(=O)CN=C(c2ccccc2)c2cc([N+](=O)[O-])ccc21	2.05
CC(C)Sc1nnc(C(C)C)c(=O)n1N	2.06
O=C(CN1CCCCC1)Nc1ccc([N+](=O)[O-])cc1	2.72
N#CCN(CC#N)N=O	0.04
CC(=O)Oc1ccc(N=C2C=CC(=O)C=C2)cc1	1.43

SMILES	logP
COc1cc(OC)c(CC(C)N)c(OC)c1 (stereo not given)	1.57
CC1(C)N=C(N)N=C(N)N1c1ccc(C(F)(F)F)cc1	1.22
Cc1cc(C)cc(OC2OC(CO)C(O)C(O)C2O)c1 (stereo not given)	0.26
O=C1CCC2CCCCC2C1 (stereo not given)	1.97
NC(=O)NN=CCCc1ccccc1	2.32
NC1CC2CC1c1ccc(C(F)(F)F)cc12 (stereo not given)	2.91
C[N+](C)(C)Cc1cccc([N+](=O)[O-])c1.[Br-]	-2.66
CCOC(=O)C(=Cc1cccc(Cl)c1)C(=O)OCC	3.49
Nc1nc(N)nc(-c2cc(Br)ccc2Cl)n1	2.04
Nc1ncco1	-0.18
COc1cc(C)nn1-c1nc(C)cc(C)n1	0.73
CNc1ccc(S(N)(=O)=O)cc1	0.08
CCOn1c(=O)[nH]c(C)c(Br)c1=O	0.11
CCCCCCCCCCCCCC[n+]1ccc(C)c(C)c1.[I-]	2.93
Cc1ccc(Cl)c(Cl)c1NC1=NCCN1	2.35
CCCNc1ccc(C(=O)OCCN(C)C)cc1	3.15
O=[N+]([O-])c1cc2nc(C(F)(F)F)[nH]c2cc1Cl	3.21
O=[N+]([O-])c1nccn1CC(O)COc1ccccc1 (stereo not given)	1.43
NC(=O)c1ccc(Cl)nn1	0
O=S(=O)(Nc1ccc(Cl)cc1)C(F)(F)F	3.96
Clc1ccccc1-c1ccc(Cl)c(Cl)c1Cl	6.11
Cc1cnc2cccc(C)n2c1=O	1.26
O=C1NC(=S)SC1=CC=Cc1ccc([N+](=O)[O-])o1	0.93
CNc1cc(Cc2cnc(N)nc2N)cc(N(C)C)c1OC	1.56
CC1(C)SC2C(NC(=O)C(Cl)c3ccccc3)C(=O)N2C1C(=O)O (stereo not given)	2.3

SMILES	logP
CON(C)C(=O)Nc1cccc(C(C)(C)C)c1	3.21
O=C1CN=C(c2ccccc2Br)c2cc(Br)ccc2N1	3.3
O=C1CCCN1CCOc1ccc([N+](=O)[O-])cc1	1.33
CC1=NS(=O)(=O)c2ccc(Cl)cc2N1	1.21
NC(=O)CCCn1nnc2ccccc21	0.37
Nc1ccc2c(c1)C(c1ccccc1)=NCC(=O)N2	1
COc1cc(Cc2cnc(N)nc2N)ccc1C	2.14
CCN(CC)CCNC(=O)c1cc(F)ccc1OC	2.62
CCCCCCCCCCCCCCCC[n+]1ccc(C)c(C)c1.[I-]	3.16
CC(C)c1nnc(N2CCOCC2)n(N)c1=O	0.49
CCc1cc(NC(C)=O)ccc1O	1.31
COc1cc(Cc2cnc(N)nc2N)cc(OC)c1C	2.14
Cc1ccc(NC(=O)c2ccco2)c(O)c1	2.84
COC12C(COC(N)=O)C3=C(C(=O)C(C)=C(Nc4ccccc4)C3=O)N1CC1NC12 (stereo not given)	1.3
CCCCCCCCCCOC(=O)N(C)SN(C)C(=O)ON=C(C)SC	6.2
CSC(C)=NOC(=O)N(C)SN(C)C(=O)c1ccc(Cl)cc1	2.6
COc1cc(S(=O)(=O)CCN2CCCCC2)cc(OC)c1OC	1.6
COc1cc(C)nc(-n2nc(C)cc2OC)n1	1.26
O=NN(CCCl)C(=O)NC1CCC(O)CC1 (stereo not given)	1.11
ClC1C=CCC(Cl)C1Cl (stereo not given)	2.84
CNP(=O)(OC)Oc1ccc(C(C)(C)C)cc1 (stereo not given)	2.71
O=S(=O)(Nc1cccc(C(F)(F)F)c1)C(F)(F)F	4.5
Brc1n[nH]c(Br)n1	2.24
Cc1ccc(OC(=O)CNC(=O)c2ccccc2)cc1	2.83
CCCNC1CC2CC1c1ccccc12 (stereo not given)	3.3
